Results taken from paper PMC8538057, “Direct Delivery of ANA-TA9, a Peptide Capable of Aβ Hydrolysis, to the Brain by Intranasal Administration” (Pharmaceutics, 2021).
Ends that are not written are not given here.

What was measured:
in vivo = assay: in vivo; set-up: species or system male Wistar/ST rats; conditions: male, Wistar/ST, rat, 2 mg
Experimental: ANA-TA9 diluted in PBS was administered to the left nostril of male Wistar/ST rats (n = 3) at a dose of 2 mg (20 μL of 100 mg/mL). For the comparison, i.v. administration served as the control for i.n. administration. The same dose of ANA-TA9 ([…] of a 10 mg/mL PBS solution) was administered into the left femoral vein of 3 rats. CSF was collected 10 min after i.n. administration by cisternal puncture. An incision was made in the skin over the occipital bone, and the first layer of the muscle was cut. The sharp end of a 25-G needle connected to PE-50 tubing (1 m length) was carefully inserted into the cisterna magna. CSF was withdrawn into the tubing with a disposable syringe. Collection was terminated as soon as blood appeared in the tubing. CSF in the tubing was ejected into a ProteoSave SS 1.5 mL microtube (Sumitomo Bakelite Co., Ltd., Tokyo, Japan) and frozen at −40 °C. The CSF volumes ranged between 100 and 150 μL (n = 6). The plasma and brain concentrations of ANA-TA9 were determined by LC/MS, LC-20A, and LCMS-2020 (SHIMADZU, Kyoto, Japan). Briefly, 100 μL of the plasma were mixed with 1000 μL of methanol. […] To the dissected brain tissue, 100 μL of ice-cold purified water were added, and the mixture was homogenized under ice-cold conditions. To the homogenate, 4000 μL of ice-cold methanol were added. […] The residues were reconstituted with 100 μL of the mobile phase of the chromatography. In the preliminary study, it was confirmed that the effect of rapid degradation of ANA-TA9 on the assay could be excluded by the treatment on the blood and brain tissues mentioned above. Chromatographic separation was performed using a C18 analytical column (TSKgel ODS 100V, 3 μm, 2.0 mm × 100 mm; TOSOH, Tokyo, Japan). The mobile phase was acetonitrile/0.1% acetic acid (10/90), and the flow rate was 0.2 mL/min. ANA-TA9 eluting from the column was detected with mass spectrometry under the positive mode. Nitrogen gas was used for nebulization at a flow rate of 1.5 L/min. […] The calibration curves of ANA-TA9 in the plasma and the brain were determined.

[1] = Storage stability of ANA-TA9 at −40 °C (preliminary study); format: physicochemical; conditions: storage at −40 °C (plasma samples)
Experimental: The rats were anesthetized through i.p. administration of a mixture of medetomidine (0.15 mg/kg body weight), midazolam (2 mg/kg body weight), and butorphanol (2.5 mg/kg body weight). The right femoral artery was cannulated with polyethylene tubing. ANA-TA9 was injected into the left femoral vein of 3 rats at a dose of 2 mg (200 μL of a 10 mg/mL PBS solution). Those 3 rats nasally received the same dose of ANA-TA9 (20 μL of a 100 mg/mL PBS solution) under anesthesia. For nasal administration, a micropipette was used. After i.n. administration, the animals were kept conscious in a rat cage (KN-326-III; Natsume, Tokyo, Japan) throughout the experiment after recovery from anesthesia. The PBS solution of ANA-TA9 (12 mg/mL) was infused intravenously for 10 min at a 25 µL/min flow rate. The infused dose was 3 mg/rat. At the appropriate time intervals after administration, blood samples were taken, heparinized, and immediately cooled down on ice, followed by centrifugation at 15,000 rpm for 5 min to obtain the plasma. The plasma samples were stored at −40 °C until the assay. In the preliminary study, it was confirmed that ANA-TA9 stored at −40 °C is stable for at least 2 weeks.

## SKGQAYRMI [ANA-TA9]
In vivo; inhaled or intranasal, CSF concentration 10 min after i.n. administration
  level at 10 min: 72 ± 6 ng/mL
In vivo; inhaled or intranasal, plasma concentration 10 min after i.n. administration
  level at 10 min: 24 ± 5 ng/mL
In vivo; iv, plasma concentration 10 min after i.v. administration
  level at 10 min: 10 ± 1 ng/mL
[1]
  time for which ANA-TA9 stored at −40 °C is stable: at least 2 weeks
